From patent publication US12540143B2, “Methods and compositions for targeted protein degradation” (Ranok Therapeutics (Hangzhou) Co. Ltd., priority 2019, dated 2026)

Tested on: MV4-11 cells
Assay: MV4-11 Cytotoxicity Assay
Format: cell-based, human
Conditions: 72 hr, CCK-8; read-out: MV4-11 cytotoxicity

Question: Which IC50 does the source give for `CC[C@@H](C)Nc1cc(C(=O)NC2C[C@H]3CC[C@H](C2)N3c2ccc(C(=O)c3ccc(CN4CCN(CC5CCN(C(=O)C[C@@H]6N=C(c7ccc(Cl)cc7)c7c(sc(C)c7C)-n7c(C)nnc76)CC5)CC4)cc3)cn2)c(C)cc1C(N)=O` (stereo partly drawn) [Compound 25] here?
Answer: 100 to 1000 nM

Same assay, conditions: Homo sapiens, MV4-11; 72 hr, CCK-8; read-out: MV4-11 cytotoxicity

Question: With `Cc1sc2c(c1C)C(c1ccc(Cl)cc1)=N[C@@H](CC(=O)N1CCC(CN3CCN(Cc4ccc(-n5c(O)nnc5-c5cc(C(C)C)c(O)cc5O)cc4F)CC3)CC1)c1nnc(C)n1-2` [Compound 17, (S)-2-(4-(4-chlorophenyl)-2,3,9-trimethyl-6H-thieno[3,2-f][1,2,4]triazolo[4,3-a][1,4]diazepin-6-yl)-1-(4-((4-(4-(3-(2,4-dihydroxy-5-isopropylphenyl)-5-hydroxy-4H-1,2,4-triazol-4-yl)-2-fluorobenzyl)piperazin-1-yl)methyl)piperidin-1-yl)ethan-1-one, trifluoroacetic acid] as the compound, how does the IC50 read?
Answer: < 100 nM

Question: With `Cc1sc2c(c1C)C(c1ccc(Cl)cc1)=N[C@@H](CC(=O)NCc1ccc(-n3c(S)nnc3-c3cc(C(C)C)c(O)cc3O)cc1)c1nnc(C)n1-2` [Compound 28, (S)-2-(4-(4-chlorophenyl)-2,3,9-trimethyl-6H-thieno[3,2-f][1,2,4]triazolo[4,3-a][1,4]diazepin-6-yl)-N-(4-(3-(2,4-dihydroxy-5-isopropylphenyl)-5-mercapto-4H-1,2,4-triazol-4-yl)benzyl)acetamide] as the compound, how does the IC50 read?
Answer: 100 to 1000 nM

Question: For `Cc1sc2c(c1C)C(c1ccc(Cl)cc1)=N[C@@H](CC(=O)N1CCN(C(=O)C3CCN(c4ccc(-n5c(O)nnc5-c5cc(C(C)C)c(O)cc5O)cc4)CC3)CC1)c1nnc(C)n1-2` [Compound 29, (S)-2-(4-(4-chlorophenyl)-2,3,9-trimethyl-6H-thieno[3,2-f][1,2,4]triazolo[4,3-a][1,4]diazepin-6-yl)-1-(4-(1-(4-(3-(2,4-dihydroxy-5-isopropylphenyl)-5-hydroxy-4H-1,2,4-triazol-4-yl)phenyl)piperidine-4-carbonyl)piperazin-1-yl)ethan-1-one], which IC50 is on record?
Answer: 100 to 1000 nM

Question: How did the IC50 turn out when `Cc1sc2c(c1C)C(c1ccc(Cl)cc1)=N[C@@H](CC(=O)NCCOc1ccc(-n3c(S)nnc3-c3cc(C(C)C)c(O)cc3O)cc1)c1nnc(C)n1-2` [Compound 32, (S)-2-(4-(4-chlorophenyl)-2,3,9-trimethyl-6H-thieno[3,2-f][1,2,4]triazolo[4,3-a][1,4]diazepin-6-yl)-N-(2-(4-(3-(2,4-dihydroxy-5-isopropylphenyl)-5-mercapto-4H-1,2,4-triazol-4-yl)phenoxy)ethyl)acetamide] was run?
Answer: 100 to 1000 nM

Question: `Cc1sc2c(c1C)C(c1ccc(Cl)cc1)=N[C@@H](CC(=O)NCCOCCOc1ccc(-n3c(S)nnc3-c3cc(C(C)C)c(O)cc3O)cc1)c1nnc(C)n1-2` [Compound 33, (S)-2-(4-(4-chlorophenyl)-2,3,9-trimethyl-6H-thieno[3,2-f][1,2,4]triazolo[4,3-a][1,4]diazepin-6-yl)-N-(2-(2-(4-(3-(2,4-dihydroxy-5-isopropylphenyl)-5-mercapto-4H-1,2,4-triazol-4-yl)phenoxy)ethoxy)ethyl)acetamide] was tested. Which IC50 did it give?
Answer: 100 to 1000 nM

Question: `Cc1sc2c(c1C)C(c1ccc(Cl)cc1)=N[C@@H](CC(=O)NCCOCCOCCOc1ccc(-n3c(S)nnc3-c3cc(C(C)C)c(O)cc3O)cc1)c1nnc(C)n1-2` [Compound 34, (S)-2-(4-(4-chlorophenyl)-2,3,9-trimethyl-6H-thieno[3,2-f][1,2,4]triazolo[4,3-a][1,4]diazepin-6-yl)-N-(2-(2-(2-(4-(3-(2,4-dihydroxy-5-isopropylphenyl)-5-mercapto-4H-1,2,4-triazol-4-yl)phenoxy)ethoxy)ethoxy)ethyl)acetamide] was tested. Which IC50 did it give?
Answer: 100 to 1000 nM

Question: With `Cc1sc2c(c1C)C(c1ccc(Cl)cc1)=N[C@@H](CC(=O)NCCOCCN1CCC(Cc3ccc(-n4c(O)nnc4-c4cc(C(C)C)c(O)cc4O)cc3)CC1)c1nnc(C)n1-2` [Compound 37, 2-((6S)-4-(4-chlorophenyl)-2,3,9-trimethyl-6H-thieno[3,2-f][1,2,4]triazolo[4,3-a][1,4]diazepin-6-yl)-N-(2-(2-(4-(4-(3-(2,4-dihydroxy-5-isopropylphenyl)-5-hydroxy-4H-1,2,4-triazol-4-yl)benzyl)piperidin-1-yl)ethoxy)ethyl)acetamide, trifluoroacetic acid] as the compound, how does the IC50 read?
Answer: 100 to 1000 nM

Question: `Cc1sc2c(c1C)C(c1ccc(Cl)cc1)=N[C@@H](CC(=O)N1CCN(Cc3ccc(-n4c(O)nnc4-c4cc(C(C)C)c(O)cc4O)cc3)CC1)c1nnc(C)n1-2` [Compound 38, 2-((6S)-4-(4-chlorophenyl)-2,3,9-trimethyl-6H-thieno[3,2-f][1,2,4]triazolo[4,3-a][1,4]diazepin-6-yl)-1-(4-(4-(3-(2,4-dihydroxy-5-isopropylphenyl)-5-hydroxy-4H-1,2,4-triazol-4-yl)benzyl)piperazin-1-yl)ethanone, trifluoroacetic acid] was tested. Which IC50 did it give?
Answer: < 100 nM

Question: For `Cc1sc2c(c1C)C(c1ccc(Cl)cc1)=N[C@@H](CC(=O)N1CCC(CN3CCN(c4ccc(-n5c(O)nnc5-c5cc(C(C)C)c(O)cc5O)cc4)CC3)CC1)c1nnc(C)n1-2` [Compound 41, (S)-2-(4-(4-chlorophenyl)-2,3,9-trimethyl-6H-thieno[3,2-f][1,2,4]triazolo[4,3-a][1,4]diazepin-6-yl)-1-(4-((4-(4-(3-(2,4-dihydroxy-5-isopropylphenyl)-5-hydroxy-4H-1,2,4-triazol-4-yl)phenyl)piperazin-1-yl)methyl)piperidin-1-yl)ethanone], which IC50 is on record?
Answer: < 100 nM

Question: Which IC50 does the source give for `Cc1sc2c(c1C)C(c1ccc(Cl)cc1)=N[C@@H](CC(=O)N1CCC(N3CCN(Cc4ccc(-n5c(O)nnc5-c5cc(C(C)C)c(O)cc5O)cc4)CC3)CC1)c1nnc(C)n1-2` [Compound 42, (S)-2-(4-(4-chlorophenyl)-2,3,9-trimethyl-6H-thieno[3,2-f][1,2,4]triazolo[4,3-a][1,4]diazepin-6-yl)-1-(4-(4-(4-(3-(2,4-dihydroxy-5-isopropylphenyl)-5-hydroxy-4H-1,2,4-triazol-4-yl)benzyl)piperazin-1-yl)piperidin-1-yl)ethan-1-one, trifluoroacetic acid] here?
Answer: < 100 nM

Question: For `Cc1sc2c(c1C)C(c1ccc(Cl)cc1)=N[C@@H](CC(=O)N1CCC(N3CCN(c4ccc(-n5c(O)nnc5-c5cc(C(C)C)c(O)cc5O)cc4)CC3)CC1)c1nnc(C)n1-2` [Compound 43, 2-((6S)-4-(4-chlorophenyl)-2,3,9-trimethyl-6H-thieno[3,2-f][1,2,4]triazolo[4,3-a][1,4]diazepin-6-yl)-1-(4-(4-(4-(3-(2,4-dihydroxy-5-isopropylphenyl)-5-hydroxy-4H-1,2,4-triazol-4-yl)phenyl)piperazin-1-yl)piperidin-1-yl)ethanone, trifluoroacetic acid], which IC50 is on record?
Answer: < 100 nM

Question: For `Cc1sc2c(c1C)C(c1ccc(Cl)cc1)=N[C@@H](CC(=O)NCC1CCN(C(=O)C3CCN(Cc4ccc(-n5c(O)nnc5-c5cc(C(C)C)c(O)cc5O)cc4)CC3)C1)c1nnc(C)n1-2` (stereo partly drawn) [Compound 45, 2-((S)-4-(4-chlorophenyl)-2,3,9-trimethyl-6H-thieno[3,2-f][1,2,4]triazolo[4,3-a][1,4]diazepin-6-yl)-N-((1-(1-(4-(3-(2,4-dihydroxy-5-isopropylphenyl)-5-hydroxy-4H-1,2,4-triazol-4-yl)benzyl)piperidine-4-carbonyl)pyrrolidin-3-yl)methyl)acetamide, trifluoroacetic acid], which IC50 is on record?
Answer: < 100 nM

Question: For `Cc1sc2c(c1C)C(c1ccc(Cl)cc1)=N[C@@H](CC(=O)NCC(=O)NCCOc1ccc(-n3c(S)nnc3-c3cc(C(C)C)c(O)cc3O)cc1)c1nnc(C)n1-2` [Compound 48, (S)-2-(4-(4-chlorophenyl)-2,3,9-trimethyl-6H-thieno[3,2-f][1,2,4]triazolo[4,3-a][1,4]diazepin-6-yl)-N-(2-((2-(4-(3-(2,4-dihydroxy-5-isopropylphenyl)-5-mercapto-4H-1,2,4-triazol-4-yl)phenoxy)ethyl)amino)-2-oxoethyl)acetamide], which IC50 is on record?
Answer: 100 to 1000 nM

Question: How did the IC50 turn out when `Cc1sc2c(c1C)C(c1ccc(Cl)cc1)=N[C@@H](CC(=O)NCCOCCN1CCN(Cc3ccc(-n4c(O)nnc4-c4cc(C(C)C)c(O)cc4O)cc3)CC1)c1nnc(C)n1-2` [Compound 49, 2-((6S)-4-(4-chlorophenyl)-2,3,9-trimethyl-6H-thieno[3,2-f][1,2,4]triazolo[4,3-a][1,4]diazepin-6-yl)-N-(2-(2-(4-(4-(3-(2,4-dihydroxy-5-isopropylphenyl)-5-hydroxy-4H-1,2,4-triazol-4-yl)benzyl)piperazin-1-yl)ethoxy)ethyl)acetamide, trifluoroacetic acid, trifluoroacetic acid, trifluoroacetic acid, trifluoroacetic …] was run?
Answer: < 100 nM

Question: How did the IC50 turn out when `Cc1sc2c(c1C)C(c1ccc(Cl)cc1)=N[C@@H](CC(=O)NCCOc1cccc(CN(C)Cc3ccc(-n4c(O)nnc4-c4cc(C(C)C)c(O)cc4O)cc3)c1)c1nnc(C)n1-2` [Compound 50, 2-((6S)-4-(4-chlorophenyl)-2,3,9-trimethyl-6H-thieno[3,2-f][1,2,4]triazolo[4,3-a][1,4]diazepin-6-yl)-N-(2-(3-(((4-(3-(2,4-dihydroxy-5-isopropylphenyl)-5-hydroxy-4H-1,2,4-triazol-4-yl)benzyl)(methyl)amino)methyl)phenoxy)ethyl)acetamide, trifluoroacetic acid, trifluoroacetic acid, trifluoroacetic acid, trifluoroacetic …] was run?
Answer: < 100 nM

Question: How did the IC50 turn out when `Cc1sc2c(c1C)C(c1ccc(Cl)cc1)=N[C@@H](CC(=O)NCCOCc1ccc(-n3c(O)nnc3-c3cc(C(C)C)c(O)cc3O)cc1)c1nnc(C)n1-2` [Compound 52, 2-((6S)-4-(4-chlorophenyl)-2,3,9-trimethyl-6H-thieno[3,2-f][1,2,4]triazolo[4,3-a][1,4]diazepin-6-yl)-N-(2-((4-(3-(2,4-dihydroxy-5-isopropylphenyl)-5-hydroxy-4H-1,2,4-triazol-4-yl)benzyl)oxy)ethyl)acetamide] was run?
Answer: 100 to 1000 nM

Question: How did the IC50 turn out when `Cc1sc2c(c1C)C(c1ccc(Cl)cc1)=N[C@@H](CC(=O)NCC1CCN(C(=O)C3CCN(Cc4ccc(-n5c(O)nnc5-c5cc(C(C)C)c(O)cc5O)cc4)CC3)CC1)c1nnc(C)n1-2` [Compound 53, (S)-2-(4-(4-chlorophenyl)-2,3,9-trimethyl-6H-thieno[3,2-f][1,2,4]triazolo[4,3-a][1,4]diazepin-6-yl)-N-((1-(1-(4-(3-(2,4-dihydroxy-5-isopropylphenyl)-5-hydroxy-4H-1,2,4-triazol-4-yl)benzyl)piperidine-4-carbonyl)piperidin-4-yl)methyl)acetamide, trifluoroacetic acid] was run?
Answer: < 100 nM
